# According to ChEMBL document CHEMBL3352670, “Synthesis, biological evaluation and molecular modeling of 1,3,4-thiadiazol-2-amide derivatives as novel antitubulin agents” (Bioorg Med Chem, 2014):
# What was measured:
# Tubulin = Tubulin (Bos taurus, UniProt Q6B856+Q862L2+Q862F3); test: Inhibition of bovine brain tubulin polymerization after 20 mins by turbidimetric method
# HepG2 = test: Antiproliferative activity against […] HepG2 cells after 48 hrs by MTT assay; assay type: functional, cell-based; settings: Homo sapiens, HepG2, 48 h
# A549 [1] = test: Antiproliferative activity against human A549 cells after 48 hrs by MTT assay; assay type: functional, cell-based; settings: A549, 48 h
# MCF7 = test: Antiproliferative activity against human MCF7 cells after 48 hrs by MTT assay; assay type: functional, cell-based; settings: MCF7, 48 h
# A549 [2] = test: Cell cycle arrest in human A549 cells assessed as accumulation at S phase at 0.1 uM after 48 hrs by flow cytometry (reference value: 13.83 %); assay type: functional
# A549 [3] = test: Cell cycle arrest in human A549 cells assessed as accumulation at G1 phase at 0.01 uM after 48 hrs by flow cytometry (reference value: 79.42 %); assay type: functional
# A549 [4] = test: Induction of apoptosis in human A549 cells assessed as necrotic cells at 0.05 uM after 24 hrs using Annexin-V/PI staining by flow cytometry (reference value: 3.11 %); assay type: functional
# A549 [5] = test: Cell cycle arrest in human A549 cells assessed as accumulation at G2 phase at 0.05 uM after 48 hrs by flow cytometry (reference value: 6.75 %); assay type: functional
# A549 [6] = test: Cell cycle arrest in human A549 cells assessed as accumulation at S phase at 0.01 uM after 48 hrs by flow cytometry (reference value: 13.83 %); assay type: functional
# A549 [7] = test: Induction of apoptosis in human A549 cells assessed as necrotic cells at 0.1 uM after 24 hrs using Annexin-V/PI staining by flow cytometry (reference value: 3.11 %); assay type: functional
# A549 [8] = test: Cell cycle arrest in human A549 cells assessed as accumulation at G1 phase at 0.05 uM after 48 hrs by flow cytometry (reference value: 79.42 %); assay type: functional
# A549 [9] = test: Induction of apoptosis in human A549 cells assessed as early apoptotic cells at 0.1 uM after 24 hrs using Annexin-V/PI staining by flow cytometry (reference value: 1.92 %); assay type: functional
# A549 [10] = test: Induction of apoptosis in human A549 cells assessed as early apoptotic cells at 0.05 uM after 24 hrs using Annexin-V/PI staining by flow cytometry (reference value: 1.92 %); assay type: functional
# A549 [11] = test: Cell cycle arrest in human A549 cells assessed as G2/M arrest after 48 hrs by flow cytometry; assay type: functional, cell-based
# A549 [12] = test: Induction of apoptosis in human A549 cells assessed as viable cells at 0.05 uM after 24 hrs using Annexin-V/PI staining by flow cytometry (reference value: 91.0 %); assay type: functional; settings: A549, 24 h, read-out: Activity
# A549 [13] = test: Induction of apoptosis in human A549 cells assessed as late apoptotic cells at 0.1 uM after 24 hrs using Annexin-V/PI staining by flow cytometry (reference value: 4.01 %); assay type: functional
# A549 [14] = test: Induction of apoptosis in human A549 cells assessed as necrotic cells at 0.01 uM after 24 hrs using Annexin-V/PI staining by flow cytometry (reference value: 3.11 %); assay type: functional
# A549 [15] = test: Induction of apoptosis in human A549 cells assessed as late apoptotic cells at 0.05 uM after 24 hrs using Annexin-V/PI staining by flow cytometry (reference value: 4.01 %); assay type: functional
# A549 [16] = test: Induction of apoptosis in human A549 cells assessed as viable cells at 0.1 uM after 24 hrs using Annexin-V/PI staining by flow cytometry (reference value: 91.0 %); assay type: functional; settings: A549, 24 h, read-out: Activity
# A549 [17] = test: Cell cycle arrest in human A549 cells assessed as accumulation at G2 phase at 0.01 uM after 48 hrs by flow cytometry (reference value: 6.75 %); assay type: functional
# A549 [18] = test: Cell cycle arrest in human A549 cells assessed as accumulation at G1 phase at 0.1 uM after 48 hrs by flow cytometry (reference value: 79.42 %); assay type: functional
# A549 [19] = test: Induction of apoptosis in human A549 cells assessed as late apoptotic cells at 0.01 uM after 24 hrs using Annexin-V/PI staining by flow cytometry (reference value: 4.01 %); assay type: functional
# A549 [20] = test: Induction of apoptosis in human A549 cells assessed as early apoptotic cells at 0.01 uM after 24 hrs using Annexin-V/PI staining by flow cytometry (reference value: 1.92 %); assay type: functional
# A549 [21] = test: Cell cycle arrest in human A549 cells assessed as accumulation at G2 phase at 0.1 uM after 48 hrs by flow cytometry (reference value: 6.75 %); assay type: functional
# A549 [22] = test: Induction of apoptosis in human A549 cells assessed as viable cells at 0.01 uM after 24 hrs using Annexin-V/PI staining by flow cytometry (reference value: 91.0 %); assay type: functional; settings: A549, 24 h, read-out: Activity
# A549 [23] = test: Cell cycle arrest in human A549 cells assessed as accumulation at S phase at 0.05 uM after 48 hrs by flow cytometry (reference value: 13.83 %); assay type: functional
smiles,measurement,setting,value
COc1cc(C(=O)Nc2nnc(/C=C/c3cc(OC)c(OC)c(OC)c3Br)s2)cc(OC)c1OC,IC50,Tubulin,16950 nM
same,IC50,HepG2,210 nM
same,IC50,A549 [1],140 nM
same,IC50,MCF7,510 nM
COc1cc(/C=C/c2nnc(NC(=O)c3ccccc3)s2)c(Br)c(OC)c1OC,IC50,Tubulin,9830 nM
same,IC50,HepG2,180 nM
same,IC50,A549 [1],110 nM
same,IC50,MCF7,290 nM
COc1ccc(/C=C/c2nnc(NC(=O)c3cc(OC)c(OC)c(OC)c3)s2)cc1OC,IC50,Tubulin,28060 nM
same,IC50,HepG2,220 nM
same,IC50,A549 [1],160 nM
same,IC50,MCF7,560 nM
COc1cccc(/C=C/c2nnc(NC(=O)c3cc(OC)c(OC)c(OC)c3Br)s2)c1,IC50,Tubulin,30360 nM
same,IC50,HepG2,210 nM
same,IC50,A549 [1],190 nM
same,IC50,MCF7,590 nM
COc1cc(/C=C/c2nnc(NC(=O)c3cccc(Br)c3)s2)c(Br)c(OC)c1OC,IC50,Tubulin,6020 nM
same,IC50,HepG2,160 nM
same,IC50,A549 [1],80 nM
same,IC50,MCF7,260 nM
COc1cc(/C=C/c2nnc(NC(=O)c3cccc(Cl)c3)s2)c(Br)c(OC)c1OC,IC50,Tubulin,5680 nM
same,IC50,HepG2,150 nM
same,IC50,A549 [1],70 nM
same,IC50,MCF7,230 nM
COc1ccc(C(=O)Nc2nnc(/C=C/c3cc(OC)c(OC)c(OC)c3)s2)cc1OC,IC50,Tubulin,15500 nM
same,IC50,HepG2,250 nM
same,IC50,A549 [1],130 nM
same,IC50,MCF7,480 nM
COc1ccc(C(=O)Nc2nnc(/C=C/c3cc(OC)c(OC)c(OC)c3Br)s2)cc1,IC50,Tubulin,18790 nM
same,IC50,HepG2,220 nM
same,IC50,A549 [1],150 nM
same,IC50,MCF7,560 nM
COc1cc(/C=C/c2nnc(NC(=O)c3ccc(F)cc3)s2)c(Br)c(OC)c1OC,IC50,Tubulin,15630 nM
same,IC50,HepG2,240 nM
same,IC50,A549 [1],190 nM
same,IC50,MCF7,380 nM
COc1ccc(/C=C/c2nnc(NC(=O)c3cc(OC)c(OC)c(OC)c3Br)s2)cc1,IC50,Tubulin,28580 nM
same,IC50,HepG2,210 nM
same,IC50,A549 [1],180 nM
same,IC50,MCF7,550 nM
COc1cccc(C(=O)Nc2nnc(/C=C/c3cc(OC)c(OC)c(OC)c3Br)s2)c1,IC50,Tubulin,3080 nM
same,IC50,HepG2,120 nM
same,IC50,A549 [1],60 nM
same,IC50,MCF7,170 nM
COc1cc(/C=C/c2nnc(NC(=O)c3cc(OC)c(OC)c(OC)c3)s2)cc(OC)c1OC,IC50,Tubulin,23940 nM
same,IC50,HepG2,280 nM
same,IC50,A549 [1],160 nM
same,IC50,MCF7,490 nM
COc1ccc(C(=O)Nc2nnc(/C=C/c3cc(OC)c(OC)c(OC)c3Br)s2)cc1OC,Activity,A549 [2],10.74%
same,Activity,A549 [3],73.18%
same,Activity,A549 [4],4.08%
same,Activity,A549 [5],53.34%
same,Activity,A549 [6],19.68%
same,Activity,A549 [7],3.21%
same,Activity,A549 [8],37.17%
same,Activity,A549 [9],12.9%
same,Activity,A549 [10],5.48%
same,Activity,A549 [11],Dose-dependent effect
same,viability at 0.05 µM,A549 [12],77.8%
same,Activity,A549 [13],22%
same,Activity,A549 [14],3.86%
same,IC50,Tubulin,1730 nM
same,Activity,A549 [15],12.7%
same,IC50,HepG2,50 nM
same,viability at 0.1 µM,A549 [16],61.8%
same,Activity,A549 [17],7.14%
same,Activity,A549 [18],0%
same,Activity,A549 [19],7.96%
same,Activity,A549 [20],3.41%
same,IC50,A549 [1],30 nM
same,Activity,A549 [21],89.26%
same,viability at 0.01 µM,A549 [22],84.8%
same,IC50,MCF7,60 nM
same,Activity,A549 [23],9.49%
COc1cc(/C=C/c2nnc(NC(=O)c3cccc(O)c3)s2)cc(OC)c1OC,IC50,Tubulin,23670 nM
same,IC50,HepG2,260 nM
same,IC50,A549 [1],190 nM
same,IC50,MCF7,460 nM
COc1cc(/C=C/c2nnc(NC(=O)c3ccc(Cl)cc3)s2)c(Br)c(OC)c1OC,IC50,Tubulin,11810 nM
same,IC50,HepG2,180 nM
same,IC50,A549 [1],140 nM
same,IC50,MCF7,280 nM
COc1cc(/C=C/c2nnc(NC(=O)c3cc(OC)c(OC)c(OC)c3Br)s2)c(Br)c(OC)c1OC,IC50,Tubulin,16790 nM
same,IC50,HepG2,200 nM
same,IC50,A549 [1],130 nM
same,IC50,MCF7,470 nM
COc1cccc(C(=O)Nc2nnc(/C=C/c3cc(OC)c(OC)c(OC)c3)s2)c1,IC50,Tubulin,22500 nM
same,IC50,HepG2,270 nM
same,IC50,A549 [1],150 nM
same,IC50,MCF7,480 nM
COc1cc(/C=C/c2nnc(NC(=O)c3cccc(O)c3)s2)c(Br)c(OC)c1OC,IC50,Tubulin,13440 nM
same,IC50,HepG2,220 nM
same,IC50,A549 [1],120 nM
same,IC50,MCF7,360 nM
COc1cc(/C=C/c2nnc(NC(=O)c3cccc(F)c3)s2)c(Br)c(OC)c1OC,IC50,Tubulin,7080 nM
same,IC50,HepG2,170 nM
same,IC50,A549 [1],80 nM
same,IC50,MCF7,340 nM
COc1ccc(/C=C/c2nnc(NC(=O)c3ccccc3OC)s2)cc1OC,IC50,Tubulin,29440 nM
same,IC50,HepG2,260 nM
same,IC50,A549 [1],170 nM
same,IC50,MCF7,540 nM
COc1ccc(/C=C\c2cc(OC)c(OC)c(OC)c2)cc1O [COMBRETASTATIN A4],IC50,HepG2,160 nM
COc1ccccc1C(=O)Nc1nnc(/C=C/c2cc(OC)c(OC)c(OC)c2Br)s1,IC50,Tubulin,17910 nM
same,IC50,HepG2,230 nM
same,IC50,A549 [1],170 nM
same,IC50,MCF7,600 nM
COc1cc(/C=C/c2nnc(NC(=O)c3ccccc3Br)s2)c(Br)c(OC)c1OC,IC50,Tubulin,19450 nM
same,IC50,HepG2,250 nM
same,IC50,A549 [1],210 nM
same,IC50,MCF7,370 nM
COc1cc(/C=C/c2nnc(NC(=O)c3ccc(Br)cc3)s2)c(Br)c(OC)c1OC,IC50,Tubulin,15090 nM
same,IC50,HepG2,200 nM
same,IC50,A549 [1],160 nM
same,IC50,MCF7,320 nM
